The text below walks through data of PMC8174729, “Inhibition of CMP-sialic acid transport by endogenous 5-methyl CMP” (PLoS ONE, 2021).

Each structure is given as a SMILES string. pKd: −log10 of the molar value.

Broadly, the pKd is the Kd on a negative log10 scale, so that one unit is a factor of ten.

Assay [1] addresses T1, CMP-sialic acid transporter (CST) (Mus musculus, UniProt Q61420).
T1 sequence (Q61420 1-336): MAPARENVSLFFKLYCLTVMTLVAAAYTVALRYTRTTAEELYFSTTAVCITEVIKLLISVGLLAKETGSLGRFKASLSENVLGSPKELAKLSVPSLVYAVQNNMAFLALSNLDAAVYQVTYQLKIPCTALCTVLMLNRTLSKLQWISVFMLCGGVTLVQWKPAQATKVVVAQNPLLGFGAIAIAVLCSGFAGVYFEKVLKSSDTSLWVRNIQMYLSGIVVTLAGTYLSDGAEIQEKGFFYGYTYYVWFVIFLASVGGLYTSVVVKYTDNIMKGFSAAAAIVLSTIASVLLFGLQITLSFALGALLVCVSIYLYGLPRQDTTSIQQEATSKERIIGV
The experiment in a line: X-ray crystal structure at […] Å; FSEC thermal shift binding assay with Kd (also inhibits [3H]CMP-Sia uptake in Sf9 cells, IC50 […]). Set-up: gene Slc35a1; Kd: full-length, GFP-tagged mouse CST; crystal: CSTΔC construct, which lacks the last 15 residues (322–336).

Assay [2] deals with T1, CMP-sialic acid transporter (CST). The experiment in a line: FSEC thermal shift binding assay with Kd (also inhibits [3H]CMP-Sia uptake in Sf9 cells, IC50 […]). On the set-up: gene Slc35a1; Full-length, GFP-tagged mouse CST.

For `Cc1cn([C@@H]2O[C@H](COP(=O)(O)O)[C@@H](O)[C@H]2O)c(=O)nc1N` [m5CMP, 5-methyl CMP], the pKd in assay [1] was 6.00.
With `Nc1ccn([C@@H]2O[C@H](COP(=O)(O)O)[C@@H](O)[C@H]2O)c(=O)n1` [CMP], the pKd in assay [2] is 4.79.
